From article PMC9395488, “First-in-human study of IM156, a novel potent biguanide oxidative phosphorylation (OXPHOS) inhibitor, in patients with advanced solid tumors” (Investigational New Drugs, 2022)

Tested on: patients with advanced solid tumors
Assay: First-in-human phase 1 dose-escalation study: safety, DLTs, adverse events
Type: in vivo
Description: This multicenter first-in-human dose-escalation phase 1 study (clinicaltrials.gov identifier: NCT03272256) was designed to determine the MTD or RP2D and to evaluate the safety and tolerability of IM156. Secondary endpoints included PK characteristics, efficacy assessment (objective response rate [ORR], disease control rate [DCR], duration of response [DoR] and progression-free survival [PFS]). Furthermore, exploratory objectives included identification and profiling of IM156 metabolites, evaluations of exploratory PD markers of IM156, and evaluations of any potential relationship between putative biomarkers and safety/efficacy parameters of IM156. The study was conducted in accordance with Good Clinical Practice, the International Council for Harmonisation, and guidelines governing clinical study conduct and the ethical principles originating from the Declaration of Helsinki. The study was approved by each Institutional Review Board and patients provided written informed consent. Patients were enrolled at three sites in South Korea.
The initial dose and schedule of IM156 was chosen based on animal toxicology studies. […] IM156 was administered in the fasted state, with no food for at least 2 h before and 1 h after dosing.
Three DLT-evaluable patients were enrolled at each dose level. If there were no DLTs or other prohibitive adverse events (AEs), the Safety Committee was allowed to recommend escalation to the next highest dose level. If 1 DLT occurred in the first 3 DLT-evaluable patients, enrollment in that cohort was expanded to an additional 3 DLT-evaluable patients; if ≥ 2 DLTs were reported in a cohort, that dose was considered above the MTD.
Safety was assessed through vital signs, weight, laboratory assessments, physical examinations, electrocardiogram, and reporting of AEs as graded by the National Cancer Institute’s Common Terminology Criteria for Adverse Events v4.03 (NCI-CTCAE).
DLTs were defined as the following AEs if they were attributed as related to IM156: asymptomatic grade 4 neutropenia lasting for ≥ 5 days; febrile neutropenia, regardless of grade; grade 4 thrombocytopenia or grade 3 thrombocytopenia with bleeding; any grade ≥ 3 non-hematologic AE (except grade 3 hypertension and grade 3 nausea, vomiting or diarrhea for which proper measures for prevention and treatment were not implemented, and alopecia); blood lactate levels > 5 mmol; grade ≥ 2 AE prohibiting dosing of IM156 for ≥ 21 continuous days except for alterations in serum calcium or phosphorus levels. The safety analysis includes all patients who received at least one dose of study drug.
The safety population was defined as all patients who received at least one dose of IM156. The PK population was not defined in the protocol but included all patients with sufficient PK data to perform adequate PK modeling. The efficacy population included all patients who underwent at least one tumor imaging assessment while receiving IM156. Safety was assessed using descriptive statistics (e.g., DLTs, AEs, laboratory tests, physical examination, 12-lead ECG). The incidence and number of events were reported for the DLTs observed in Cycle 1 per dose group. […] Adverse events and TRAEs were standardized with the System Organ Class and the Preferred Term using the Medical Dictionary for Regulatory Activities v23.0. In addition, TEAEs, serious adverse events (SAEs), TEAE severity, and TEAEs leading to withdrawal were presented by dose group. Efficacy data were to be presented by Waterfall and Swim Lane plots. Time to event endpoints (e.g., DoR, PFS) were determined using Kaplan–Meier estimations with the median value for each endpoint summarized.

[1] = DL3 400 mg orally every other day (n=3)
[2] = DL4 800 mg orally every other day (n=3)

NC(=Nc1ccc(OC(F)(F)F)cc1)N=C(N)N1CCCC1 [IM156] was tested, and the “TRAE Blood Lactic Acid increased, > G3 (patients)” value (DL3 400 mg QOD oral, N = 3) was 0, the “TRAE Blood Lactic Acid increased, All grades (patients)” value (DL3 400 mg QOD oral, N = 3) was 0 and the “TRAE Constipation, > G3 (patients)” value (DL3 400 mg QOD oral, N = 3) was 0. The “TRAE Constipation, All grades (patients)” value (DL3 400 mg QOD oral, N = 3) was 0, the “TRAE Decreased appetite, > G3 (patients)” value (DL3 400 mg QOD oral, N = 3) was 0 and the “TRAE Decreased appetite, All grades (patients)” value (DL3 400 mg QOD oral, N = 3) was 0. For the same compound, the “TRAE Diarrhoea, > G3 (patients)” value (DL3 400 mg QOD oral, N = 3) was 0, the “TRAE Diarrhoea, All grades (patients)” value (DL3 400 mg QOD oral, N = 3) was 0 and the “TRAE Fatigue, > G3 (patients)” value (DL3 400 mg QOD oral, N = 3) was 0. The “TRAE Fatigue, All grades (patients)” value (DL3 400 mg QOD oral, N = 3) was 0, the “TRAE Insomnia, > G3 (patients)” value (DL3 400 mg QOD oral, N = 3) was 0 and the “TRAE Insomnia, All grades (patients)” value (DL3 400 mg QOD oral, N = 3) was 1. For the same compound, the “TRAE Nausea, > G3 (patients)” value (DL3 400 mg QOD oral, N = 3) was 0, the “TRAE Nausea, All grades (patients)” value (DL3 400 mg QOD oral, N = 3) was 3 and the “TRAE Vomiting, > G3 (patients)” value (DL3 400 mg QOD oral, N = 3) was 0. For the same compound, the “TRAE Vomiting, All grades (patients)” value (DL3 400 mg QOD oral, N = 3) was 1, the “TEAE Adrenal insufficiency grade 1” value [1] was 0 and the “TEAE Adrenal insufficiency grade 2” value [1] was 0. The “TEAE Adrenal insufficiency grade 3” value [1] was 0, the “TEAE Adrenal insufficiency grade 4” value [1] was 0 and the “TEAE Anaemia grade 1” value [1] was 0. The “TEAE Anaemia grade 2” value [1] was 0, the “TEAE Anaemia grade 3” value [1] was 0 and the “TEAE Anaemia grade 4” value [1] was 0. The “TEAE Appendicitis perforated grade 1” value [1] was 0, the “TEAE Appendicitis perforated grade 2” value [1] was 0 and the “TEAE Appendicitis perforated grade 3” value [1] was 0. For the same compound, the “TEAE Appendicitis perforated grade 4” value [1] was 0, the “TEAE Back pain grade 1” value [1] was 0 and the “TEAE Back pain grade 2” value [1] was 0. The “TEAE Back pain grade 3” value [1] was 0, the “TEAE Back pain grade 4” value [1] was 0 and the “TEAE Cystitis grade 1” value [1] was 0. For the same compound, the “TEAE Cystitis grade 2” value [1] was 0, the “TEAE Cystitis grade 3” value [1] was 0 and the “TEAE Cystitis grade 4” value [1] was 0. For the same compound, the “TEAE Dry skin grade 1” value [1] was 0, the “TEAE Dry skin grade 2” value [1] was 0 and the “TEAE Dry skin grade 3” value [1] was 0. The “TEAE Dry skin grade 4” value [1] was 0, the “TEAE Flank pain grade 1” value [1] was 0 and the “TEAE Flank pain grade 2” value [1] was 0. The “TEAE Flank pain grade 3” value [1] was 0, the “TEAE Flank pain grade 4” value [1] was 0 and the “TEAE Hypertension grade 1” value [1] was 0. For the same compound, the “TEAE Hypertension grade 2” value [1] was 1, the “TEAE Hypertension grade 3” value [1] was 0 and the “TEAE Hypertension grade 4” value [1] was 0. For the same compound, the “TEAE Hypotension grade 1” value [1] was 0, the “TEAE Hypotension grade 2” value [1] was 0 and the “TEAE Hypotension grade 3” value [1] was 0. For the same compound, the “TEAE Hypotension grade 4” value [1] was 0, the “TEAE Insomnia grade 1” value [1] was 1 and the “TEAE Insomnia grade 2” value [1] was 0. For the same compound, the “TEAE Insomnia grade 3” value [1] was 0, the “TEAE Insomnia grade 4” value [1] was 0 and the “TEAE Pain in extremity grade 1” value [1] was 1. For the same compound, the “TEAE Pain in extremity grade 2” value [1] was 0, the “TEAE Pain in extremity grade 3” value [1] was 0 and the “TEAE Pain in extremity grade 4” value [1] was 0. For the same compound, the “TEAE Pruritus grade 1” value [1] was 0, the “TEAE Pruritus grade 2” value [1] was 0 and the “TEAE Pruritus grade 3” value [1] was 0. For the same compound, the “TEAE Pruritus grade 4” value [1] was 0, the “TEAE Psychiatric disorders grade 1” value [1] was 1 and the “TEAE Psychiatric disorders grade 2” value [1] was 0. For the same compound, the “TEAE Psychiatric disorders grade 3” value [1] was 0, the “TEAE Psychiatric disorders grade 4” value [1] was 0 and the “TEAE Purpura grade 1” value [1] was 0. For the same compound, the “TEAE Purpura grade 2” value [1] was 0, the “TEAE Purpura grade 3” value [1] was 0 and the “TEAE Purpura grade 4” value [1] was 0. For the same compound, the “TEAE Urinary retention grade 1” value [1] was 0, the “TEAE Urinary retention grade 2” value [1] was 0 and the “TEAE Urinary retention grade 3” value [1] was 0. For the same compound, the “TEAE Urinary retention grade 4” value [1] was 0, the “TEAE Urinary tract disorder grade 1” value [1] was 0 and the “TEAE Urinary tract disorder grade 2” value [1] was 0. The “TEAE Urinary tract disorder grade 3” value [1] was 0, the “TEAE Urinary tract disorder grade 4” value [1] was 0 and the “TEAE Abdominal pain upper, grade 2” value (DL4 800 mg QOD (n=3)) was 1. For the same compound, the “TEAE Abdominal pain, grade 1” value (DL4 800 mg QOD (n=3)) was 1, the “TEAE Abdominal pain, grade 3” value (DL4 800 mg QOD (n=3)) was 1 and the “TEAE Asthenia, grade 1” value (DL4 800 mg QOD (n=3)) was 1. For the same compound, the “TEAE Chest pain, grade 1” value (DL4 800 mg QOD (n=3)) was 1, the “TEAE Constipation, grade 1” value (DL4 800 mg QOD (n=3)) was 1 and the “TEAE Constipation, grade 2” value (DL4 800 mg QOD (n=3)) was 1. The “TEAE Cough, grade 1” value (DL4 800 mg QOD (n=3)) was 1, the “TEAE Diarrhoea, grade 1” value (DL4 800 mg QOD (n=3)) was 3 and the “TEAE Fatigue, grade 1” value (DL4 800 mg QOD (n=3)) was 1. For the same compound, the “TEAE Nausea, grade 1” value (DL4 800 mg QOD (n=3)) was 2, the “TEAE Nausea, grade 2” value (DL4 800 mg QOD (n=3)) was 1 and the “TRAE Abdominal Pain, > G3 (patients)” value (DL4 800 mg QOD oral, N = 3) was 0. For the same compound, the “TRAE Abdominal Pain, All grades (patients)” value (DL4 800 mg QOD oral, N = 3) was 1, the “TRAE Blood Lactic Acid increased, > G3 (patients)” value (DL4 800 mg QOD oral, N = 3) was 0 and the “TRAE Blood Lactic Acid increased, All grades (patients)” value (DL4 800 mg QOD oral, N = 3) was 0. For the same compound, the “TRAE Constipation, > G3 (patients)” value (DL4 800 mg QOD oral, N = 3) was 0, the “TRAE Constipation, All grades (patients)” value (DL4 800 mg QOD oral, N = 3) was 0 and the “TRAE Decreased appetite, > G3 (patients)” value (DL4 800 mg QOD oral, N = 3) was 0. For the same compound, the “TRAE Decreased appetite, All grades (patients)” value (DL4 800 mg QOD oral, N = 3) was 0, the “TRAE Diarrhoea, > G3 (patients)” value (DL4 800 mg QOD oral, N = 3) was 0 and the “TRAE Diarrhoea, All grades (patients)” value (DL4 800 mg QOD oral, N = 3) was 3. For the same compound, the “TRAE Fatigue, > G3 (patients)” value (DL4 800 mg QOD oral, N = 3) was 0, the “TRAE Fatigue, All grades (patients)” value (DL4 800 mg QOD oral, N = 3) was 1 and the “TRAE Insomnia, > G3 (patients)” value (DL4 800 mg QOD oral, N = 3) was 0. The “TRAE Insomnia, All grades (patients)” value (DL4 800 mg QOD oral, N = 3) was 0, the “TRAE Nausea, > G3 (patients)” value (DL4 800 mg QOD oral, N = 3) was 0 and the “TRAE Nausea, All grades (patients)” value (DL4 800 mg QOD oral, N = 3) was 3. For the same compound, the “TRAE Vomiting, > G3 (patients)” value (DL4 800 mg QOD oral, N = 3) was 0, the “TRAE Vomiting, All grades (patients)” value (DL4 800 mg QOD oral, N = 3) was 0 and the “TEAE Adrenal insufficiency grade 1” value [2] was 0. The “TEAE Adrenal insufficiency grade 2” value [2] was 0, the “TEAE Adrenal insufficiency grade 3” value [2] was 0 and the “TEAE Adrenal insufficiency grade 4” value [2] was 0. The “TEAE Anaemia grade 1” value [2] was 0, the “TEAE Anaemia grade 2” value [2] was 0 and the “TEAE Anaemia grade 3” value [2] was 0.
